{"source": "paper PMC2193201", "about": "(The Journal of Experimental Medicine, 2000)", "key": {"B*3909": {"target": "B*3909 (Homo sapiens, UniProt P01889, A182T/A93T/A95T/C349S/D138N/D201E/E176V/E187T/E204Q/K202T/Q94N/R155S/R180L/S121R/Y123S/Y140F/Y91C)", "assay": "cell-based"}, "[1]": {"target": "T1, aminopeptidase M from pig kidney (Sus scrofa, UniProt P15145)", "T1 sequence (P15145 whole entry, looked up)": "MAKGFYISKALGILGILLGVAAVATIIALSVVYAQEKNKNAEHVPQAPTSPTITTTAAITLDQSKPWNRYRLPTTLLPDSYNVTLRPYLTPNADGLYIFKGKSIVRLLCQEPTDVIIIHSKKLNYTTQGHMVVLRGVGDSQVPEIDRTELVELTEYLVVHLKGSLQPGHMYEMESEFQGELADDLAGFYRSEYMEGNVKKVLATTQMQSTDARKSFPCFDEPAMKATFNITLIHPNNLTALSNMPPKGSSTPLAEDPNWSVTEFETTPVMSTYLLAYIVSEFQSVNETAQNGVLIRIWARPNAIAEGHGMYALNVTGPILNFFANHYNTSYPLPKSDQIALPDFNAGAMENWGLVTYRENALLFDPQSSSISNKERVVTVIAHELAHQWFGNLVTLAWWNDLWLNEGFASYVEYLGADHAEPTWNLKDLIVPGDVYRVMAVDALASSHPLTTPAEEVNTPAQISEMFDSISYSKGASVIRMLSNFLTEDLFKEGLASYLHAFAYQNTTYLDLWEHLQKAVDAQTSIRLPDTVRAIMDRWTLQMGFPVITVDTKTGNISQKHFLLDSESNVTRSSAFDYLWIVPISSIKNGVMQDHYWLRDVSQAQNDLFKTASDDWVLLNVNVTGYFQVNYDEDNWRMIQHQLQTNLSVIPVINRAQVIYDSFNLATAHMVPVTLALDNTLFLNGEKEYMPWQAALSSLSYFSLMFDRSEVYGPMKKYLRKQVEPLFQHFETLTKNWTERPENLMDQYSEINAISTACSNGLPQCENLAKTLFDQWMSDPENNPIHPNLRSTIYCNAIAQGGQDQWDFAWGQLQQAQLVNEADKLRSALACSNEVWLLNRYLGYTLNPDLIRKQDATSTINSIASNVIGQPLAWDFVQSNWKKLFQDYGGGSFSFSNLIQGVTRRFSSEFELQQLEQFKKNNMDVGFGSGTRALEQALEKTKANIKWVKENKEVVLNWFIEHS"}, "aminopeptidase M": {"system": "aminopeptidase M", "conditions": "pig, 37°C, up to 10 min"}, "20S proteasome": {"system": "20S proteasome", "assay": "purified 20S proteasome", "conditions": "human, 37°C, up to 24 h"}}, "note": "pEC50: −log10 of the molar value. Where a SMILES comes first, the peptide text is derived from it.", "data": [{"compound": "CC(C)C[C@H](NC(=O)[C@H](Cc1ccc(O)cc1)NC(=O)[C@H](Cc1ccccc1)NC(=O)[C@H](CCC(=O)O)NC(=O)[C@@H](NC(=O)[C@H](CCC(=O)O)NC(=O)[C@H](CC(=O)O)NC(=O)[C@H](CCCNC(=N)N)NC(=O)[C@H](C)N)[C@@H](C)O)C(=O)O", "note": "(H-ARDETEFYL-OH)", "values": [{"measurement": "pEC50", "setting": "B*3909", "result": 5.30}]}, {"compound": "THGPPVQL", "values": [{"measurement": "MALDI-TOF MS peak signal after digestion with aminopeptidase M", "setting": "[1]", "result": "reduced almost to background levels"}]}, {"compound": "CC(C)C[C@H](NC(=O)[C@H](C)NC(=O)[C@@H](NC(=O)[C@@H](NC(=O)CNC(=O)[C@@H]1CCCN1C(=O)[C@H](CCCNC(=N)N)NC(=O)[C@@H](N)Cc1ccc(O)cc1)[C@@H](C)O)C(C)C)C(=O)O", "note": "[YRPGTVAL] (H-YRPGTVAL-OH)", "values": [{"measurement": "pEC50", "setting": "B*3909", "result": 4.92}]}, {"compound": "NAc-SHVAVENAL", "values": [{"measurement": "not cleaved", "setting": "aminopeptidase M", "result": "signals remained strongly significant"}]}, {"compound": "NAc-SHVAVENALGLDQQFAGLDLNSSDNQSGGS", "values": [{"measurement": "cleaved bond", "setting": "20S proteasome", "result": "L9-G10, major"}]}]}
